This assay concerns the target T1, 20KVIV23/26N-hP2X1R (Homo sapiens, UniProt P51575, L23V/M21V/R20K/V22I).
T1 construct: expressed in transfected cells; host or cells: Xenopus laevis oocytes (cRNA injection)
T1 sequence (P51575 1-399 R20K/M21V/V22I/L23V): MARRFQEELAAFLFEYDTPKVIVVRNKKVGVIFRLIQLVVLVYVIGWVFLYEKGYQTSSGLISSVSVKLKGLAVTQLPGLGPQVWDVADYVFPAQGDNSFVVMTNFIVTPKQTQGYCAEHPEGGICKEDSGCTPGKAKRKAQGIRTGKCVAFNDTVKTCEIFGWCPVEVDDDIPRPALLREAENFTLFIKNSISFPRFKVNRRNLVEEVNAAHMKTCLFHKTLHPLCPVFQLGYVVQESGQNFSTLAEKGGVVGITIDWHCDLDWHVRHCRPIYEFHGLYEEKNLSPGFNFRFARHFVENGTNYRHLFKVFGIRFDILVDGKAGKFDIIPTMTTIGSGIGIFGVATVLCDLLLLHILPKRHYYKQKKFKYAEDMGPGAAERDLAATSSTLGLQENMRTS
In words: TEVC of ATP-induced currents, hP2X1R mutant in X. laevis oocytes (peak current protocol). The format is cell-based. The text has this:
Oocyte expression plasmids encoding the wild-type (wt) and N-terminally His-tagged (His-) fusion constructs of the hP2X2R, hP2X3R, hP2X4R, and hP2X7R, and the mutant His-^20RMVL^23KVIV^23S^26N-hP2X1R, S^15V-rP2X3R, and His-S^15V-hP2X3R were the same as used in previous research ([Hausmann et al., 2006]; [Wolf et al., 2011]; [Hausmann et al., 2014]; [Obrecht et al., 2019]). In most cases, the N-terminal His-tagged variants of P2XRs were used here and in the previous studies to allow biochemical analyses on affinity-purified proteins using the same constructs. Although this was not required for the present study, it allows for better comparability with our previous studies. Capped cRNAs of different P2XRs were already available in the research group or were synthesized as previously described ([Schmalzing et al., 1991]; [Stolz et al., 2015]). cRNA was injected into collagenase-defolliculated X. laevis oocytes in aliquots of 41 nl or 23 nl (see Supplementary Table S1 for the amount of cRNA used for expression of the indicated P2XR) using a Nanoliter 2000 injector (World Precision Instruments, Sarasota, United States of America) as described previously ([Hausmann et al., 2014]; [Stolz et al., 2015]; [Obrecht et al., 2019]). To express the heteromeric hP2X2/3 receptor, cRNAs encoding His-hP2X2R and wt-hP2X3R were coinjected at a ratio (w/w) of 1:6. Oocytes were stored at 19°C in an oocyte ringer solution (ORi^+) containing 90 mM NaCl, 1 mM KCl, 1 mM CaCl2, 1 mM MgCl2, and 10 mM HEPES (Carl Roth, Karlsruhe, Germany) adjusted to pH 7.4 with NaOH and supplemented with 50 μg/ml gentamicin (AppliChem, Darmstadt, Germany). […]
Ion currents mediated by P2X receptors were evoked by the indicated concentration of ATP or α,β-meATP and were recorded 1 or 2 days after cRNA injection at ambient temperature at a holding potential of −60 mV by two-electrode voltage clamp (TEVC) as previously described ([Hausmann et al., 2006]). […]

Molecules are shown by their SMILES.

For orientation: IC50 means the concentration that gives 50% inhibition. Higher therefore signals a need for much substance. The inhibition is how much of the control response was suppressed.

Consider `O=C(O)Cc1ccccc1Nc1c(Cl)cccc1Cl` [Diclofenac, diclofenac], for which the “reversibility of the inhibitory effect” value is on record as “reversible”. Further, under “1 µM ATP, peak current protocol, X. laevis oocytes”, the IC50 was 338 µM. In addition, where the note is “read-out: Max. inhibition at 1 mM”, the inhibition at 1000 µM was found to be 86.2%.

These data come from paper PMC10060569 (Frontiers in Pharmacology, 2023).
